The text below walks through data of patent US12653851B2, “Isolated recombinant oncolytic adenoviruses, pharmaceutical compositions, and uses thereof for drugs for treatment of tumors and/or cancers” (HANGZHOU CONVERD CO., LTD., priority 2017, dated 2026).

Data set [1] has as its system human PDL1 protein fused with 3×FLAG tag. Nature of the data set: inhibitory effect of shPDL1 on over-expressed hPDL1 protein in 293T cells, Western blot. It counts as cell-based. Conditions: 293T cells co-transfected 1:1 with pcDNA3.3-hPDL1-3×FLAG, 48 hours. On the procedure:
293T cells were transiently transfected with plasmids pSGU6/GFP/Neo-shPDL1-NC, pSGU6/GFP/Neo-shPDL1-1, pSGU6/GFP/Neo-shPDL1-2 and pSGU6/GFP/Neo-shPDL1-3 with pcDNA3.3-hPDL1-3×FLAG at an equimolar ratio (1:1), respectively, wherein plasmid pcDNA3.3-hPDL1-3×FLAG expresses the human PDL1 protein fused with 3×FLAG tag. Cell samples were collected after 48 hours, and Western blot analysis was performed after cell lysis.

Data set [2] deals with hPDL1 mRNA (human PDL1 mRNA). Nature of the data set: inhibitory effect of shPDL1 on hPDL1 mRNA, Real-time PCR. It counts as cell-based. Conditions: U251 and H460 cells, 24 h and 48 h after transfection, compared to control shRNA. On the procedure:
U251 and H460 cells were seeded in 12-well plates at 2×10^5 cells per well, respectively, 12 hours in advance. U251 and H460 cells in each well were transfected with 1.6 μg shRNA expression vector DNA in a ratio to 4 μl lipofectamin 2000. Two cell samples were taken over 24 hours and 48 hours, respectively. After the total RNA was extracted and reverse transcription was performed, the expression level of human PDL1 mRNA in cells was detected by Real-time PCR with the mRNA level of GAPDH gene as a control.

“Also recorded” adds a separate entry of the source.

On to “shPDL1-#1 (GGGAAATGGAGGATAAGAACATTCAAGAGATGTTCTTATCCTCCATTTCCCTT; expressed or natural sequence)”, for which, in data set [1], the “over-expressed hPDL1 protein” value is listed as “significantly reduce”. Besides, the “inhibitory effect on hPDL1 mRNA” value in data set [2] is “inhibitory effect; also recorded: most significant inhibitory effect”.
In the case of “shPDL1-#2: shRNA (coding sequence SEQ ID NO. 19) targeting region 430-452 of human PDL1 mRNA (DNA GGATCCAGTCACCTCTGAACATTCAAGAGATGTTCAGAGGTGACTGGATCCTT)”, the “inhibitory effect on hPDL1 mRNA” value in data set [2] was “inhibitory effect”.
Regarding “shPDL1-#3: shRNA (coding sequence SEQ ID NO. 22) targeting region 589-611 of human PDL1 mRNA (DNA GAGAATCAACACAACAACTAATTCAAGAGATTAGTTGTTGTGTTGATTCTCTT)”, the “inhibitory effect on hPDL1 mRNA” value in data set [2] is “inhibitory effect”.
